Patent US20230219963A1, “PYRROLO[2,3-D]PYRIMIDINE DERIVATIVES” (Pfizer Inc., priority 2020, published 2023)

What was measured:
[1] = biological target: JAK1 (Homo sapiens, UniProt P23458); test: JAK Caliper Enzyme Assay at 1 mM ATP (JAK1); format: biochemical
Method: JAK Caliper Enzyme Assay at 1 mM ATP
Test article was solubilized in dimethyl sulfoxide (DMSO) to a stock concentration of 30 mM. An 11-point half log dilution series was created in DMSO with a top concentration of 600 μM. […] The compound plates were diluted 1 to 60 resulting in a top final assay compound concentration of 10 μM and a 2% DMSO concentration. Test article and assay controls were added to a 384-well plate. Reaction mixtures contained 20 mM HEPES, pH 7.4, 10 mM magnesium chloride, 0.01% bovine serum albumin (BSA), 0.0005% Tween 20, 1 mM ATP and 1 μM peptide substrate. […] The assays were initiated by the addition of 20 nM JAK1, 1 nM JAK2, 1 nM JAK3 or 1 nM TYK2 enzyme and were incubated at room temperature for three hours for JAK1, 60 minutes for JAK2, 75 minutes for JAK3 or 135 minutes for TYK2. Enzyme concentrations and incubation times were optimized for each new enzyme preps and were modified slightly over time to ensure 20%-30% phosphorylation. The assays were stopped with a final concentration of 10 mM EDTA, 0.1% Coating Reagent and 100 mM HEPES, pH=7.4. The assay plates were placed on a Caliper Life Science Lab Chip 3000 (LC3000) instrument, and each well was sampled using appropriate separation conditions to measure the unphosphorylated and phosphorylated peptide.

[2] = test system: IL-13 induced pSTAT6; test: IL-13-induced pSTAT6 in human keratinocytes; format: cell-based; conditions: Keratinocyte, JAK1/JAK2, read-out: IL-13 induced pSTAT6, cellular potency IC50
Method: (§1) Human whole blood was collected from healthy donors via vein puncture into Vacutainer collection tubes containing sodium heparin in accordance with Pfizer protocols (Protocol No. GOHW RDP-01) approved by the Shulman Institutional Review Board. Blood was warmed to 37° C. priorto use. Human whole blood was aliquoted (90 μL/well) in 96-well, deep-well, V-bottom plates and treated with compounds (5 μL/well) at different concentrations up to 60 μM (0.2% DMSO final) at 37° C. for 60 minutes. This was followed by a challenge with IFNα (5000 U/mL), IFNγ (100 ng/mL), IL-6 (50 ng/mL), IL-10 (30 ng/mL), IL-12 (30 ng/mL), IL-15 (30 ng/mL), IL-21 (50 ng/mL), IL-23 (25 ng/mL), IL-27 (1000 ng/mL), EPO (2 U/mL), TSLP (50 ng/mL) or PBS and incubated for 15 minutes. Anti-cell surface antibodies were added 15 minutes prior to cytokine stimulation; anti-CD3-BV421 (0.5 μL/well) to IL-6-treated and TSLP-treated samples and anti-CD14-BV421 (0.5 μL/well) to IFNγ-treated samples. Samples were treated with warm 1×Lyse/Fix buffer (700 μL/well) to terminate activation and further incubated at 37° C. for 20 minutes to lyse red blood cells. Plates were centrifuged at 300×g for 5 minutes, supernatant was aspirated, and cells were washed with 800 μL/well of staining buffer (D-PBS containing 0.1% FBS and 0.01% sodium azide). Washed cell pellets were resuspended in 350 μL/well of prechilled 90% methanol and incubated at 4° C. for 30 minutes. After the removal of 90% methanol, cells were washed once with staining buffer. […]
(§2) After overnight incubation at 4° C., anti-pSTAT stained samples were transferred into 96-well polypropylene U-bottom plates and flow cytometric analysis was performed on a LSR Fortessa™ equipped with a HTS plate loader. […] Background fluorescence was defined using unstimulated cells and a gate was placed at the foot of the peak to include ˜0.5% gated population. […]

[3] = test system: IL-22 induced pSTAT3; test: IL-22-induced pSTAT3 in human keratinocytes; format: cell-based; conditions: Keratinocyte, JAK1/TYK2, read-out: IL-22 induced pSTAT3, cellular potency IC50
[4] = test system: IL-4 induced pSTAT6; test: IL-4-induced pSTAT6 in human keratinocytes; format: cell-based; conditions: Keratinocyte, JAK1/JAK2, read-out: IL-4 induced pSTAT6, cellular potency IC50
Method: as §1, §2

[5] = test system: IL-23 induced pSTAT3; test: IL-23-induced pSTAT3 in human whole blood (lymphocytes); format: cell-based; conditions: Lymphocyte, JAK2/TYK2, read-out: IL-23 induced pSTAT3, cellular potency IC50
Method: as §1, with “buffer. All samples were finally suspended in 150 μL/well of the desired anti-phospho-STAT antibodies at 1:150 dilution in staining buffer; anti-pSTAT1-AF647 in IFNγ treated samples; anti-pSTAT1-AF488 and anti-pSTAT3-AF647 in IL-6-treated samples, anti-pSTAT3-AF647 in IFNα, IL-10, IL-21, IL-23 and IL-27 treated samples, anti-pSTAT4-AF647 in IL-12 treated samples, anti-pSTAT5-AF-647 in EPO, IL-15 and TSLP-treated samples. Human primary keratinocytes were cultured in DermaLife™ medium with supplement kit to expand cell population. Cell passages 2 to 5 were used in the assays. Cells were harvested at ˜80% confluence, suspended in warm DermaLife™ medium, aliquoted (90 μL/well) in 96-well, deep-well, V-bottom plates, and incubated at 37° C. for 30 minutes. Cells were then treated with compounds (0.0003 to 20 μM) for 60 minutes and followed by stimulation with IL-4 (2 ng/mL) or IL-13 (20 ng/mL) at 37° C. for 15 minutes.” for “buffer.”
as §2

[6] = test system: IL-6 induced pSTATI; test: IL-6-induced pSTAT1 in human whole blood (CD3+ cells); format: cell-based; conditions: JAK1/JAK2, read-out: IL-6 induced pSTATI, cellular potency IC50
Method: as §1, with “buffer. All samples were finally suspended in 150 μL/well of the desired anti-phospho-STAT antibodies at 1:150 dilution in staining buffer; anti-pSTAT1-AF647 in IFNγ treated samples; anti-pSTAT1-AF488 and anti-pSTAT3-AF647 in IL-6-treated samples, anti-pSTAT3-AF647 in IFNα, IL-10, IL-21, IL-23 and IL-27 treated samples, anti-pSTAT4-AF647 in IL-12 treated samples, anti-pSTAT5-AF-647 in EPO, IL-15 and TSLP-treated samples. Human primary keratinocytes were cultured in DermaLife™ medium with supplement kit to expand cell population. Cell passages 2 to 5 were used in the assays. Cells were harvested at ˜80% confluence, suspended in warm DermaLife™ medium, aliquoted (90 μL/well) in 96-well, deep-well, V-bottom plates, and incubated at 37° C. for 30 minutes. Cells were then treated with compounds (0.0003 to 20 μM) for 60 minutes and followed by stimulation with IL-4 (2 ng/mL) or IL-13 (20 ng/mL) at 37° C. for 15 minutes.” for “buffer.”
as §2

[7] = test system: IFNg induced pSTATI; test: IFNγ-induced pSTAT1 in human whole blood (CD14+ cells); format: cell-based; conditions: JAK1/JAK2, read-out: IFNg induced pSTATI, cellular potency IC50
Method: as §1, with “buffer. All samples were finally suspended in 150 μL/well of the desired anti-phospho-STAT antibodies at 1:150 dilution in staining buffer; anti-pSTAT1-AF647 in IFNγ treated samples; anti-pSTAT1-AF488 and anti-pSTAT3-AF647 in IL-6-treated samples, anti-pSTAT3-AF647 in IFNα, IL-10, IL-21, IL-23 and IL-27 treated samples, anti-pSTAT4-AF647 in IL-12 treated samples, anti-pSTAT5-AF-647 in EPO, IL-15 and TSLP-treated samples. Human primary keratinocytes were cultured in DermaLife™ medium with supplement kit to expand cell population. Cell passages 2 to 5 were used in the assays. Cells were harvested at ˜80% confluence, suspended in warm DermaLife™ medium, aliquoted (90 μL/well) in 96-well, deep-well, V-bottom plates, and incubated at 37° C. for 30 minutes. Cells were then treated with compounds (0.0003 to 20 μM) for 60 minutes and followed by stimulation with IL-4 (2 ng/mL) or IL-13 (20 ng/mL) at 37° C. for 15 minutes.” for “buffer.”
as §2

Sequence of JAK1 (P23458 whole entry): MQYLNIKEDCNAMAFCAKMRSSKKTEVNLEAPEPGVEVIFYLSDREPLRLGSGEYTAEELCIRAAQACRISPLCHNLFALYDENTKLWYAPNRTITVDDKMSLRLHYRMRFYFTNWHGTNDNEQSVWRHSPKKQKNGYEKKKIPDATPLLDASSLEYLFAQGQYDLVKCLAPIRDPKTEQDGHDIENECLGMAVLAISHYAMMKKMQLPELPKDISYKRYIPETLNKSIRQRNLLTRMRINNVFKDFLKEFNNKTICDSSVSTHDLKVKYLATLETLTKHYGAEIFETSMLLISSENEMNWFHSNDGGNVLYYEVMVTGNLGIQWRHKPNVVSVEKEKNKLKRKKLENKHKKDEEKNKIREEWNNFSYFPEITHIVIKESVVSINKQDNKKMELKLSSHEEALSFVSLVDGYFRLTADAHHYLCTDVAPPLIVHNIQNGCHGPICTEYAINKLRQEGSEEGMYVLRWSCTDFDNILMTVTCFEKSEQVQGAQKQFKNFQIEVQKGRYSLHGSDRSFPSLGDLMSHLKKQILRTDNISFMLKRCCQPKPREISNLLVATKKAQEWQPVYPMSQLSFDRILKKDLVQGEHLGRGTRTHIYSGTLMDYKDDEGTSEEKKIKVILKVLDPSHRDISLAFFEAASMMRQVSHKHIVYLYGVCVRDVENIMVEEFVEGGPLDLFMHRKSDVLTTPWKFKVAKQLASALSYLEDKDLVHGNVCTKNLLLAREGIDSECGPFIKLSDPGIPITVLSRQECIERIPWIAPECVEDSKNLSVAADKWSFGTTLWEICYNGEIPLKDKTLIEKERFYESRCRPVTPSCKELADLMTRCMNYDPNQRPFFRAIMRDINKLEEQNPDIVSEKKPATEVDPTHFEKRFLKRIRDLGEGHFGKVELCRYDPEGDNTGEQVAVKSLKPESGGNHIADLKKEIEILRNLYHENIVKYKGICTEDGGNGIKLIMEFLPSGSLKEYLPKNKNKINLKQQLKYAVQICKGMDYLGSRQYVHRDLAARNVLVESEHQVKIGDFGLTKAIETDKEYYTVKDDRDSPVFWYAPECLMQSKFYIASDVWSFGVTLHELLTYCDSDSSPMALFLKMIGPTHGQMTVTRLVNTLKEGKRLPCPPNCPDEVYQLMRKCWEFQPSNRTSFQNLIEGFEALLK

Row | IC50 [1] [nM] | IC50 [2] [nM] | IC50 [3] [nM] | IC50 [4] [nM] | IC50 [5] [nM] | IC50 [6] [nM] | IC50 [7] [nM] | Compound
1 | 17.9 | 84.1 | 198 | 134 | 6210 | 136 | 2160 | C[C@H](O)CS(=O)(=O)N[C@H]1C[C@@H](N(C)c2ncnc3[nH]ccc23)C1 (single isomer, unassigned) [IA (M2)]
2 | 56.7 |  |  |  | 13800 | 333 | 4250 | C[C@@H](O)CS(=O)(=O)N[C@H]1C[C@@H](N(C)c2ncnc3[nH]ccc23)C1 (single isomer, unassigned) [IC (M3)]
3 | 43.4 | 236 | 703 | 433 | 26200 | 171 | 1950 | CN(c1ncnc2[nH]ccc12)[C@H]1C[C@@H](NS(=O)(=O)CCCO)C1 [IB (M1), 3-Hydroxy-N-(cis-3-(methyl(7H-pyrrolo[2,3-d]pyrimidin-4-yl)amino)cyclobutyl)propane-1-sulfonamide]
